The text below walks through data of PMC6590375 (Journal of Clinical Pharmacology, 2019).

Series [1] is classed as in vivo, human.
The format of series [2] is in vivo, human. The following applies: for AUCinf central value, higher than in subjects with normal renal function: regression analyses.
The conditions of series [3]: human, plasma, oral.
The conditions of series [4]: cited from earlier work.
The mark [5] stands for this setting: single 15 mg dose, all subjects.
Setting [6] is: mild renal impairment (N = 6), single 15-mg extended-release dose, fasting.
Setting [7] is: normal renal function (N = 6), single 15-mg extended-release dose, fasting.
The mark [8] stands for this setting: severe renal impairment (N = 6), single 15-mg extended-release dose, fasting.

Like-named read-outs stand apart in the source and are kept apart here.

`CC[C@@H]1CN(C(=O)NCC(F)(F)F)C[C@@H]1c1cnc2cnc3[nH]ccc3n12` [Upadacitinib]: in series [1] (one subject in the mild renal impairment group, mild, reasonable possibility of being related to study drug, no other adverse events reported), the Adverse events result was “diarrhea and upper respiratory infection”. The “Physical exam, vital signs, electrocardiogram and laboratory findings” value in series [1] (setting [5]) is recorded as “no clinically significant physical exam findings, vital sign measurements, electrocardiogram abnormalities, or laboratory test abnormalities”. Further, the Tolerability result in series [1] (setting [5]) is recorded as “well tolerated”. The CL renal was 32.7 mL/min in series [2] (both, human, urine and plasma, oral, 15 mg); around 400 mL/min in series [3]. The “fe (fraction of dose excreted unchanged in urine), arithmetic mean ± SD” value in series [2] (setting [6]) was 7.03 ± 3.05%; in series [2] (setting [7]) it was 9.91 ± 4.05%; in series [2] (setting [8]), 2.48 ± 1.62%. For the same compound, the figures for the “fe (fraction of dose excreted unchanged in urine), geometric mean” value in series [2] (setting [6]), in series [2] (setting [7]) and in series [2] (setting [8]) were 6.51%, 9.24% and 2.10%, respectively. Also, the “CLR (renal clearance), arithmetic mean ± SD” value in series [2] (setting [7]) is reported as 5.64 ± 2.13 L/h. The “AUCinf central value, higher than in subjects with normal renal function” value amounted to 18% in series [2] (mild renal impairment), 33% in series [2] (moderate renal impairment) and 44% in series [2] (severe renal impairment). For the same compound, the “Immediate-release dose eliminated in urine as unchanged upadacitinib” value in series [4] (immediate-release formulation) was “Approximately 20%”. Besides, the “Dose proportionality of plasma exposures” value in series [4] (over the range of immediate-release or extended-release doses evaluated in clinical studies) is on record as “approximately dose‐proportional”.
